PubChem BioAssay (NCI)
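Growth conditions: 96-well plates. Treatment: test compound, 48 hours, 5 concentrations. Analysis: linear interpolation between bracketing concentrations; unreached endpoints set to highest concentration. TGI is the concentration that stops growth completely.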

Assays:
Experiment in all cases: inhibition of tumour cell growth, NCI panel, 48 h
NCI-H522 lung = test system: NCI-H522 lung
OVCAR-3 ovarian = test system: OVCAR-3 ovarian
NCI-H23 lung = test system: NCI-H23 lung
EKVX NSCLC = test system: EKVX NSCLC
KM12 colon = test system: KM12 colon
SK-MEL-2 melanoma = test system: SK-MEL-2 melanoma
UO-31 renal = test system: UO-31 renal
U251 CNS = test system: U251 CNS
RXF-631 renal = test system: RXF-631 renal
OVCAR-5 ovarian = test system: OVCAR-5 ovarian
HOP-92 NSCLC = test system: HOP-92 NSCLC
RXF 393 renal = test system: RXF 393 renal
DLD-1 colon = test system: DLD-1 colon
SN12C renal = test system: SN12C renal
ACHN renal = test system: ACHN renal
MOLT-4 leukemia = test system: MOLT-4 leukemia
HOP-18 NSCLC = test system: HOP-18 NSCLC
XF 498 CNS = test system: XF 498 CNS
HCC-2998 colon = test system: HCC-2998 colon
COLO 205 colon = test system: COLO 205 colon
OVCAR-8 ovarian = test system: OVCAR-8 ovarian
SNB-19 CNS = test system: SNB-19 CNS
K-562 leukemia = test system: K-562 leukemia
SF-295 CNS = test system: SF-295 CNS
A498 renal = test system: A498 renal
HCT-116 colon = test system: HCT-116 colon
SK-MEL-5 melanoma = test system: SK-MEL-5 melanoma
SF-539 CNS = test system: SF-539 CNS
UACC-257 melanoma = test system: UACC-257 melanoma
HCT-15 colon = test system: HCT-15 colon
IGROV1 ovarian = test system: IGROV1 ovarian
OVCAR-4 ovarian = test system: OVCAR-4 ovarian
NCI-H460 lung = test system: NCI-H460 lung
UACC-62 melanoma = test system: UACC-62 melanoma
A549 NSCLC = test system: A549 NSCLC
SW-620 colon = test system: SW-620 colon
TK-10 renal = test system: TK-10 renal
SF-268 CNS = test system: SF-268 CNS
RPMI-8226 leukemia = test system: RPMI-8226 leukemia
KM20L2 colon = test system: KM20L2 colon
SNB-75 CNS = test system: SNB-75 CNS
DMS 114 small cell lung = test system: DMS 114 small cell lung
HOP-62 NSCLC = test system: HOP-62 NSCLC
HT29 colon = test system: HT29 colon
MALME-3M melanoma = test system: MALME-3M melanoma
LXFL 529 NSCLC = test system: LXFL 529 NSCLC
LOX IMVI melanoma = test system: LOX IMVI melanoma
786-0 renal = test system: 786-0 renal
DMS 273 small cell lung = test system: DMS 273 small cell lung
M14 melanoma = test system: M14 melanoma
SK-MEL-28 melanoma = test system: SK-MEL-28 melanoma
SK-OV-3 ovarian = test system: SK-OV-3 ovarian
M19-MEL melanoma = test system: M19-MEL melanoma
SNB-78 CNS = test system: SNB-78 CNS
CCRF-CEM leukemia = test system: CCRF-CEM leukemia
CAKI-1 renal = test system: CAKI-1 renal
HL-60(TB) leukemia = test system: HL-60(TB) leukemia
NCI-H226 lung = test system: NCI-H226 lung

CCNC(=O)O/N=C1\CCC2[C@@H]3CC=C4C[C@@H](OC(=O)NCC)CC[C@]4(C)C3CC[C@]12C (stereo partly specified)
TGI (NCI-H522 lung): 10.6 µM | TGI (OVCAR-3 ovarian): 12.6 µM | TGI (NCI-H23 lung): 11.7 µM | TGI (EKVX NSCLC): 4.84 µM | TGI (KM12 colon): 13.8 µM | TGI (SK-MEL-2 melanoma): 9.87 µM | TGI (UO-31 renal): 2.62 µM | TGI (U251 CNS): 9.6 µM | TGI (RXF-631 renal): 17.3 µM | TGI (OVCAR-5 ovarian): 17.1 µM | TGI (HOP-92 NSCLC): 13.3 µM | TGI (RXF 393 renal): 11.6 µM | TGI (DLD-1 colon): > 100 µM | TGI (SN12C renal): 11.9 µM | TGI (ACHN renal): 4.96 µM | TGI (MOLT-4 leukemia): 3.2 µM | TGI (HOP-18 NSCLC): 6.73 µM | TGI (XF 498 CNS): 0.911 µM | TGI (HCC-2998 colon): 17.7 µM | TGI (COLO 205 colon): 1.73 µM | TGI (OVCAR-8 ovarian): 18.2 µM | TGI (SNB-19 CNS): 14.1 µM | TGI (K-562 leukemia): 4 µM | TGI (SF-295 CNS): 11.4 µM | TGI (A498 renal): > 100 µM | TGI (HCT-116 colon): 13.7 µM | TGI (SK-MEL-5 melanoma): 10.4 µM | TGI (SF-539 CNS): > 100 µM | TGI (UACC-257 melanoma): 3.33 µM | TGI (HCT-15 colon): 12.5 µM | TGI (IGROV1 ovarian): > 100 µM | TGI (OVCAR-4 ovarian): 5.19 µM | TGI (NCI-H460 lung): 10 µM | TGI (UACC-62 melanoma): 10.2 µM | TGI (A549 NSCLC): 13.5 µM | TGI (SW-620 colon): 16.7 µM | TGI (TK-10 renal): 5.9 µM | TGI (SF-268 CNS): 13 µM | TGI (RPMI-8226 leukemia): 5.69 µM | TGI (KM20L2 colon): 12.7 µM | TGI (SNB-75 CNS): 7.35 µM | TGI (DMS 114 small cell lung): 1.82 µM | TGI (HOP-62 NSCLC): > 100 µM | TGI (HT29 colon): 13 µM | TGI (MALME-3M melanoma): 1.51 µM | TGI (LXFL 529 NSCLC): 2.2 µM | TGI (LOX IMVI melanoma): 4.64 µM | TGI (786-0 renal): 12.8 µM | TGI (DMS 273 small cell lung): 3.54 µM | TGI (M14 melanoma): 3.23 µM | TGI (SK-MEL-28 melanoma): 12.1 µM | TGI (SK-OV-3 ovarian): 19.7 µM | TGI (M19-MEL melanoma): 4.79 µM

CCn1c(=O)nc2n(-c3ccc(SC)cc3)c3ccccc3nc-2c1=O
TGI (NCI-H522 lung): > 100 µM | TGI (OVCAR-3 ovarian): > 100 µM | TGI (NCI-H23 lung): > 100 µM | TGI (EKVX NSCLC): > 100 µM | TGI (KM12 colon): > 100 µM | TGI (SK-MEL-2 melanoma): > 100 µM | TGI (UO-31 renal): > 100 µM | TGI (U251 CNS): > 100 µM | TGI (RXF-631 renal): > 100 µM | TGI (OVCAR-5 ovarian): > 100 µM | TGI (HOP-92 NSCLC): > 100 µM | TGI (DLD-1 colon): > 100 µM | TGI (SN12C renal): > 100 µM | TGI (ACHN renal): > 100 µM | TGI (MOLT-4 leukemia): > 100 µM | TGI (HOP-18 NSCLC): > 100 µM | TGI (SNB-78 CNS): > 100 µM | TGI (CCRF-CEM leukemia): > 100 µM | TGI (HCC-2998 colon): > 100 µM | TGI (COLO 205 colon): > 100 µM | TGI (OVCAR-8 ovarian): > 100 µM | TGI (CAKI-1 renal): > 100 µM | TGI (SNB-19 CNS): > 100 µM | TGI (K-562 leukemia): > 100 µM | TGI (SF-295 CNS): > 100 µM | TGI (A498 renal): > 100 µM | TGI (SK-MEL-5 melanoma): > 100 µM | TGI (SF-539 CNS): > 100 µM | TGI (UACC-257 melanoma): > 100 µM | TGI (HCT-15 colon): > 100 µM | TGI (IGROV1 ovarian): > 100 µM | TGI (OVCAR-4 ovarian): > 100 µM | TGI (NCI-H460 lung): > 100 µM | TGI (UACC-62 melanoma): > 100 µM | TGI (A549 NSCLC): > 100 µM | TGI (SW-620 colon): > 100 µM | TGI (TK-10 renal): > 100 µM | TGI (SF-268 CNS): > 100 µM | TGI (RPMI-8226 leukemia): > 100 µM | TGI (KM20L2 colon): > 100 µM | TGI (SNB-75 CNS): > 100 µM | TGI (DMS 114 small cell lung): > 100 µM | TGI (HOP-62 NSCLC): > 100 µM | TGI (HL-60(TB) leukemia): > 100 µM | TGI (NCI-H226 lung): > 100 µM | TGI (MALME-3M melanoma): > 100 µM | TGI (LXFL 529 NSCLC): > 100 µM | TGI (786-0 renal): > 100 µM | TGI (DMS 273 small cell lung): > 100 µM | TGI (M14 melanoma): > 100 µM | TGI (SK-MEL-28 melanoma): > 100 µM | TGI (SK-OV-3 ovarian): > 100 µM | TGI (M19-MEL melanoma): > 100 µM
